Assay results from patent publication US11339169B2, “P2X3 and/or P2X2/3 compounds and methods” (Asana BioSciences, LLC, priority 2016, dated 2022).
Where “and” joins values, the source holds several entries; their conditions need not be identical. Equal values may be shown once.

How the values were obtained:
hP2X2/3 = biological target: T1, hP2X2/3 (Homo sapiens, UniProt P56373+Q9UBL9); test: FLIPR intracellular calcium assay, hP2X2/3; type: cell-based; details: human P2X2/3-TRex293 cells, agonist at EC75
T1 construct: host or cells: TRex293 (hP2X2/3-TRex293), doxycycline-induced
T1 sequence (P56373 1-397): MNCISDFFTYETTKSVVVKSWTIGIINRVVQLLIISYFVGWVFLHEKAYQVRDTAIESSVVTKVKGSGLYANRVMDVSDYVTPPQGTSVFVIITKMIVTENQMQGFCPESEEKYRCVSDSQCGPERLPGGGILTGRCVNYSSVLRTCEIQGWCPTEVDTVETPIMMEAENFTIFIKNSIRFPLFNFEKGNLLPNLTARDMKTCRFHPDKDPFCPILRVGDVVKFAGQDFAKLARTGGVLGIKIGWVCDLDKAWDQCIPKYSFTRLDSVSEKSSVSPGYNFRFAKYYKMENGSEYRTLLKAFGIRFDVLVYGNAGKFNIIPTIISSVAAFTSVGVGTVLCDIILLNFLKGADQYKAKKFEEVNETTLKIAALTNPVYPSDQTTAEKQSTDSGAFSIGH
T1 sequence (Q9UBL9 1-471): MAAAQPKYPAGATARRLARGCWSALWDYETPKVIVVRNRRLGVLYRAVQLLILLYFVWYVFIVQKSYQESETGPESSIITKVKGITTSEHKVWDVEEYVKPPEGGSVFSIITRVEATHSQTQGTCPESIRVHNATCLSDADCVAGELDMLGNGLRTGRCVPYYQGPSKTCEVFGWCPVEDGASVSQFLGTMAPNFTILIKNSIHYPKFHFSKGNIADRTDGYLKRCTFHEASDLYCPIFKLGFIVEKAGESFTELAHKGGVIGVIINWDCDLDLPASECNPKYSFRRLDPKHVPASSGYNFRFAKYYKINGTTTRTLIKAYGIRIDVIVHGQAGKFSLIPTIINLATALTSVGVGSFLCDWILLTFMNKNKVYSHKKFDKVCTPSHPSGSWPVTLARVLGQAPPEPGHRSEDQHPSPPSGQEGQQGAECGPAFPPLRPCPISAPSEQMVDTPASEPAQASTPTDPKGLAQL
From the text: (§1) The FLIPR® assay utilizes cells which express human or rat P2X3 or P2X2/3 receptors. Recombinant cells expressing hP2X3 (Cat #6188) and hP2X2/3 (Cat #6179) were procured from Chantest Corp. Rat P2X2 (NCBI Accession No: U14414) was amplified by PCR from PC12 cDNA (a rat adrenal medulla cell line). The PCR product obtained containing the protein coding sequence of rat P2X2 was cloned into EcoRV-digested and dephosphorylated vector plRES-puro3 within the multiple cloning site (MCS). See, FIG. 1A.
(§2) (i) Intracellular Calcium Assay Protocol for Screening Compounds
(§3) Cryo-vial containing 6×10^6 cells (human P2X3-HEK/human P2X2/3-TRex293/rat P2X2/3-TRex293/rat P2X3 TRex-CHO) was thawed in a 37° C. water bath. Cells were suspended in 20 mL of respective cell plating media (See annexure for composition) in a 50 mL centrifuge tube. The cell viability was checked with the help of Trypan Blue dye. Upon washing, cells were plated in a black 384-well clear bottomed, sterile poly-D-lysine coated plate such that, each well contained 10,000 cells (15,000/well for hP2X3) in 30 μL cell plating media. The plate was incubated in a 5% CO2 incubator at 37° C. for 24 h.
(§4) The next day, prior to the assay, the cell plating media was removed from each well by decanting and gentle tapping. Thirty μL of FLIPR Calcium 4 dye solution was added to each well. The plate was incubated at 37° C. for 45 min (60 min for hP2X3). The plate was next equilibrated at room temperature for 15 minutes before placing it in a 384 well FLIPR for the assay.
(§5) Compounds were dissolved in DMSO and serially diluted following 11 point half log (3.16 fold) dilution with a starting concentration of 2 mM. Dilutions were mixed with assay buffer just before performing the assay.
(§6) Compounds were added to the respective wells of the assay-ready cell plate with the help of the FLIPR and fluorescence readings were captured for 5 min to observe any possible agonistic property of the compounds. The plate was then incubated at room temperature for 15 min. The cells were stimulated with respective agonist EC75 concentration and the fluorescence readings were captured for another 5 min by FLIPR. The difference in fluorescence readings in presence of the compounds were compared with that of the control wells (wells having no compound) to calculate the inhibitory potency of the compounds. The IC50 values of the compounds were determined using the Graph pad Prism software.
(§7) (ii) Cell Plating Media for hP2X3-HEK and hP2X2/3-TRex293 Cells • DMEM/F12 (1:1) HAM media (Invitrogen; Cat #11039) • 1×NEAA (Invitrogen; Cat #11140) • 25 mM HEPES (Invitrogen; Cat #15630) • 1 mM sodium pyruvate (Invitrogen; Cat #11360) • 10% tetracycline negative FBS (PAA; Cat #A15-209) • 1 μg/mL doxycycline (Clontech; Cat #63131) [for hP2X2/3-TRex293 cells only]
(§8) (v) Assay Buffer Composition • HBSS (Invitrogen Cat #14025) • 20 mM HEPES (Invitrogen Cat #15630) • 0.01% F127 (Sigma Cat #P2443) • 1.8 mM CaCl2 (Sigma Cat #C5080) • pH adjusted to 7.4
(§9) (vi) Dye Solution Composition • 1× FLIPR Calcium 4 dye in assay buffer (Molecular devices Cat #R8141) • 1.8 mM Probenecid (Sigma Cat #P8761) • pH adjusted to 7.4

hP2X3 = biological target: T2, hP2X3 (Homo sapiens, UniProt P56373); test: FLIPR intracellular calcium assay, hP2X3; type: cell-based; details: human P2X3-HEK cells, agonist at EC75
T2 construct: host or cells: HEK (hP2X3-HEK)
T2 sequence (P56373 1-397): T1 sequence (P56373 1-397)
From the text: as §1, §2, §3, §4, §5, §6, §7, §8, §9

Row | SMILES | IC50 (hP2X2/3) [nM] | IC50 (hP2X3)
1 | CCC(C)n1ncc2nc(N3CCC(C(N)=O)CC3)nc(N[C@@H](c3cnc4ccccc4c3)C3CC3)c21 (stereo partly shown) [Example 75] | 1000 to 10000 | 1 to 100 nM
2 | CCC(C)n1ncc2nc(N3CCOC(C#N)C3)nc(N[C@@H](c3cnc4ccccc4c3)C3CC3)c21 (stereo partly shown) [Example 76] | 1000 to 10000 | 100 to 1000 nM
3 | CCC(C)n1ncc2nc(-n3cncn3)nc(N[C@@H](c3cnc4ccccc4c3)C3CC3)c21 (stereo partly shown) [Example 77] | 1000 to 10000 | 1 to 100 nM and 100 to 1000 nM
4 | CC[C@H](C)n1ncc2nc(N3CCN(C(N)=O)CC3)nc(NC(c3ccc4c(cnn4CC)c3)C3CC3)c21 (stereo partly shown) [Example 80] | 1000 to 10000 | 1 to 100 nM
5 | CC[C@H](C)n1ncc2nc(N3CCN(C(C)=O)CC3)nc(NC(CO)c3cnc4ccccc4c3)c21 (stereo partly shown) [Example 81] | 100 to 1000 | 1 to 100 nM
6 | CC[C@H](C)n1ncc2nc(N3CCN(C(C)=O)CC3)nc(NC(COC)c3cnc4ccccc4c3)c21 (stereo partly shown) [Example 82] | 1000 to 10000 | 1 to 100 nM
7 | CC[C@H](C)n1ncc2nc(N3CCN(C(N)=O)CC3)nc(NC(c3cnc4ccccc4n3)C3CC3)c21 (stereo partly shown) [Example 83] | 1000 to 10000 | 1 to 100 nM
8 | CCC(C)n1ncc2nc(N3CCN(C(N)=O)CC3)nc(N[C@H](C)c3cn4ccc(C)cc4n3)c21 (stereo partly shown) [Example 84] | 1000 to 10000 | 1 to 100 nM
9 | CCC(C)n1ncc2nc(N3CCN(C(N)=O)CC3)nc(N[C@H](C)c3cnc4ccccc4c3)c21 (stereo partly shown) [Example 85] | 100 to 1000 | 1 to 100 nM
10 | CC(C1CC1)n1ncc2nc(N3CCN(C(N)=O)CC3)nc(N[C@@H](c3cnc4ccccc4c3)C3CC3)c21 (stereo partly shown) [Example 86] | 1 to 100 | 1 to 100 nM
11 | CCC(C)n1ncc2nc(N3CCN(C(C)=O)CC3)nc(N[C@H](C)c3cnc4ccccc4c3)c21 (stereo partly drawn) [Example 89, 1-{4-[1-sec-Butyl-7-((R)-1-quinolin-3-yl-ethylamino)-1H-pyrazolo[4,3-d]pyrimidin-5-yl]-piperazin-1-yl}-ethanone] | 100 to 1000 | 1 to 100 nM
12 | CCC(C)n1nc(Br)c2nc(N3CCN(C(C)=O)CC3)nc(N[C@H](C)c3cnc4ccccc4c3)c21 (stereo partly drawn) [Example 90, 1-{4-[3-Bromo-1-sec-butyl-7-((R)-1-quinolin-3-yl-ethylamino)-1H-pyrazolo[4,3-d]pyrimidin-5-yl]-piperazin-1-yl}-ethanone] | 1000 to 10000 | 1 to 100 nM
13 | CCC(C)n1nc(C#N)c2nc(N3CCN(C(C)=O)CC3)nc(N[C@H](C)c3cnc4ccccc4c3)c21 (stereo partly drawn) [Example 91, 5-(4-Acetyl-piperazin-1-yl)-1-sec-butyl-7-((R)-1-quinolin-3-yl-ethylamino)-1H-pyrazolo[4,3-d]pyrimidine-3-carbonitrile] | 1000 to 10000 | 1 to 100 nM
14 | CCC(C)n1nc(C2CC2)c2nc(N3CCN(C(C)=O)CC3)nc(N[C@H](C)c3cnc4ccccc4c3)c21 (stereo partly drawn) [Example 93, 1-{4-[1-sec-Butyl-3-cyclopropyl-7-((R)-1-quinolin-3-yl-ethylamino)-1H-pyrazolo[4,3-d]pyrimidin-5-yl]-piperazin-1-yl}-ethanone] | 1000 to 10000 | 1 to 100 nM
15 | CC(=O)N1CCN(c2nc(NC(C)c3cnc4ccccc4c3)c3nn(C(C)C)c(Br)c3n2)CC1 (stereo not shown) [Example 94] | 1000 to 10000 | 1 to 100 nM
16 | CC(=O)N1CCN(c2nc(NC(C)c3cnc4ccccc4c3)c3nn(C(C)C)c(C)c3n2)CC1 (stereo not shown) [Example 96] | > 10000 | 1 to 100 nM
17 | CC(=O)N1CCN(c2nc(N[C@H](C)c3cnc4ccccc4c3)c3nn(C(C)C)c(Br)c3n2)CC1 [Example 98] | 1000 to 10000 | 1 to 100 nM
18 | CC(=O)N1CCN(c2nc(N[C@H](C)c3cnc4ccccc4c3)c3nn(C(C)C)c(Cl)c3n2)CC1 [Example 99] | 1000 to 10000 | 1 to 100 nM
19 | CC(=O)N1CCN(c2nc(N[C@H](C)c3cnc4ccccc4c3)c3c(n2)c(Br)nn3C(C)C)CC1 [Example 100] | 1000 to 10000 | 1 to 100 nM
20 | CC(=O)N1CCN(c2nc(NC(C)(C)Cc3ccc(Cl)cc3)c3nn(C(C)C)c(C)c3n2)CC1 [Example 101] | 1000 to 10000 | 100 to 1000 nM
